The record followed here is patent US7297704B2, “Cycloalkyfused indole, benzothiophene, benzofuran and idene derivatives” (Wyeth, priority 2005, dated 2007).

Counter-ions that a name gives are not always drawn.

The molecule `CCC(C)N(C[C@@H]1CCc2[nH]c3ccc(F)cc3c2C1)C[C@H]1COc2ccc3nc(C)ccc3c2O1.Cl.O` (stereo partly drawn) (hydrate or solvate) [Example 58, N-{[(3R)-6-Fluoro-2,3,4,9-tetrahydro-1H-carbazol-3-yl]methyl}-N-{[(2S)-8-methyl-2,3-dihydro[1,4]dioxino[2,3-f]quinolin-2-yl]methyl}butan-2-amine monohydrochloride monohydrate] returned a melting point of 235 to 256 °C.
In the case of `Cc1ccc2c3c(ccc2n1)OC[C@H](CN(C[C@@H]1CCc2[nH]c4ccc(F)cc4c2C1)C1CCCC1)O3.Cl.O` (hydrate or solvate) [Example 59, N-{[(3R)-6-Fluoro-2,3,4,9-tetrahydro-1H-carbazol-3-yl]methyl}-N-{[(2S)-8-methyl-2,3-dihydro[1,4]dioxino[2,3-f]quinolin-2-yl]methyl}cyclopentanamine monohydrochloride monohydrate] it was 225 to 243 °C; in that of `Cc1ccc2c3c(ccc2n1)OC[C@H](CN(C[C@@H]1CCc2[nH]c4ccc(F)cc4c2C1)C1CCCCC1)O3.Cl.O` (hydrate or solvate) [Example 60, N-{[(3R)-6-fluoro-2,3,4,9-tetrahydro-1H-carbazol-3-yl]methyl}-N-{[(2S)-8-methyl-2,3-dihydro[1,4]dioxino[2,3-f]quinolin-2-yl]methyl}cyclohexanamine monohydrochloride monohydrate], 207 to 218 °C; in that of `Cc1ccc2c3c(ccc2n1)OC[C@H](CN(C[C@H]1CCc2[nH]c4ccc(F)cc4c2C1)C(C)C)O3.Cl.O` (hydrate or solvate) [Example 61, N-{[(3S)-6-Fluoro-2,3,4,9-tetrahydro-1H-carbazol-3-yl]methyl}-N-{[(2S)-8-methyl-2,3-dihydro[1,4]dioxino[2,3-f]quinolin-2-yl]methyl}propan-2-amine monohydrochloride monohydrate], 228 to 240 °C.
In the case of `CCC(C)N(C[C@H]1CCc2[nH]c3ccc(F)cc3c2C1)C[C@H]1COc2ccc3nc(C)ccc3c2O1.Cl.O` (stereo partly drawn) (hydrate or solvate) [Example 62, N-{[(3S)-6-Fluoro-2,3,4,9-tetrahydro-1H-carbazol-3-yl]methyl}-N-{[(2S)-8-methyl-2,3-dihydro[1,4]dioxino[2,3-f]quinolin-2-yl]methyl}butan-2-amine monohydrochloride monohydrate] it was 246 to 257 °C.
`Cc1ccc2c3c(ccc2n1)OC[C@H](CN(C[C@H]1CCc2[nH]c4ccc(F)cc4c2C1)C1CCCC1)O3.Cl.O` (hydrate or solvate) [Example 63, N-{[(3S)-6-Fluoro-2,3,4,9-tetrahydro-1H-carbazol-3-yl]methyl}-N-{[(2S)-8-methyl-2,3-dihydro[1,4]dioxino[2,3-f]quinolin-2-yl]methyl}cyclopentanamine monohydrochloride monohydrate] registered a melting point of 237 to 254 °C.
As to `Cc1ccc2c3c(ccc2n1)OC[C@H](CN(C[C@H]1CCc2[nH]c4ccc(F)cc4c2C1)C1CCCCC1)O3.Cl.O` (hydrate or solvate) [Example 64, N-{[(3S)-6-Fluoro-2,3,4,9-tetrahydro-1H-carbazol-3-yl]methyl}-N-{[(2S)-8-methyl-2,3-dihydro[1,4]dioxino[2,3-f]quinolin-2-yl]methyl}cyclohexanamine monohydrochloride monohydrate], the melting point lay within 202 to 208 °C.
With `Cc1ccc2c3c(ccc2n1)OC[C@H](CN(CC1CCc2c(c4cc(F)ccc4n2C)C1)C1CCCC1)O3.Cl.O` (stereo partly drawn) (hydrate or solvate) [Example 66, N-[(6-Fluoro-9-methyl-2,3,4,9-tetrahydro-1H-carbazol-3-yl)methyl]-N-{[(2S)-8-methyl-2,3-dihydro[1,4]dioxino[2,3-f]quinolin-2-yl]methyl}cyclopentanamine monohydrochloride monohydrate], the melting point fell in the range of 206 to 222 °C.
In the case of `Cc1ccc2c3c(ccc2n1)OC[C@H](CN(CC1CCc2c(c4cc(F)ccc4n2C)C1)C1CCCCC1)O3.Cl.O` (stereo partly drawn) (hydrate or solvate) [Example 67, N-[(6-Fluoro-9-methyl-2,3,4,9-tetrahydro-1H-carbazol-3-yl)methyl]-N-{[(2S)-8-methyl-2,3-dihydro[1,4]dioxino[2,3-f]quinolin-2-yl]methyl}cyclohexanamine monohydrochloride monohydrate] it was 204 to 225 °C.
As to `Cc1ccc2c3c(ccc2n1)OC[C@H](CN(C)C[C@H]1CCc2c(c4cc(F)ccc4n2C)C1)O3.Cl.O` (hydrate or solvate) [Example 68, {[(3S)-6-Fluoro-9-methyl-2,3,4,9-tetrahydro-1H-carbazol-3-yl]methyl}methyl{[(2S)-8-methyl-2,3-dihydro[1,4]dioxino[2,3-f]quinolin-2-yl]methyl}amine monohydrochloride monohydrate], the melting point was in the range of 248 to 258 °C.
Take `Cc1ccc2c3c(ccc2n1)OC[C@H](CN(C)C[C@@H]1CCc2c(c4cc(F)ccc4n2C)C1)O3.Cl.O` (hydrate or solvate) [Example 69, {[(3R)-6-Fluoro-9-methyl-2,3,4,9-tetrahydro-1H-carbazol-3-yl]methyl}methyl{[(2S)-8-methyl-2,3-dihydro[1,4]dioxino[2,3-f]quinolin-2-yl]methyl}amine monohydrochloride monohydrate]: the melting point lay in the range of 244 to 256 °C.
In the case of `Cc1ccc2c3c(ccc2n1)OC[C@H](CNC1CCc2c([nH]c4ccc(F)cc24)C1)O3` (mixture of isomers) (as salt: hydrochloride) [Example 46, 6-Fluoro-N-{[(2S)-8-methyl-2,3-dihydro[1,4]dioxino[2,3-f]quinolin-2-yl]methyl}-2,3,4,9-tetrahydro-1H-carbazol-2-amine] it was 226 to 228 °C (dec.); in that of `Cc1ccc2c3c(ccc2n1)OC[C@H](CNC[C@H]1CCc2[nH]c4ccccc4c2C1)O3` (single isomer, unassigned) (as salt: hydrochloride) [Example 100a], 202 to 205 °C (dec.).
For the molecule `Cc1ccc2c3c(ccc2n1)OC[C@H](CNC[C@@H]1CCc2[nH]c4ccccc4c2C1)O3` (single isomer, unassigned) (as salt: hydrochloride) [Example 100b], the melting point was 218 to 221 °C (dec.).
The result for `Cc1ccc2c3c(ccc2n1)OCC(CNCC1CCc2[nH]c4ccc(Cl)cc4c2C1)O3` (stereo not drawn) [Example 85, (6-Chloro-2,3,4,9-tetrahydro-1H-carbazol-3-ylmethyl)-(8-methyl-2,3-dihydro-[1,4]dioxino[2,3-f]quinolin-2-ylmethyl)-amine] reads 235 to 237 °C.
